# Source: patent US9579337B2, “Use of uridine and deoxyuridine to treat folate-responsive pathologies” (priority 2011, dated 2017)
# Key:
# [1] = test system: Shmt1-deficient embryos (NTDs, exencephaly); assay: Neural tube defects (exencephaly) in embryos of Shmt1 dams fed nucleoside-supplemented diets; format: in vivo, mouse; details: for Shmt1+/+ embryos with exencephaly: crosses involving Shmt1+/+ dams; for prevention of NTDs by supplementation of the folate-deficient (FD) diet: maternal folate deficiency, 0.2% thymidine or 0.1% 2'-deoxyuridine in diet
# From the text: NTDs were examined in litters harvested from crosses of 129SvEv-Shmt1 (N=10 and more) mice. Shmt1^+/−, Shm1^+/+, and Shmt1^−/− mice were generated from Shmt1^+/− breeding pairs maintained as a heterozygote breeding colonies. Shmt1^+/+ and Shmt1^−/− female mice were then crossed to Shmt1^+/− male mice for timed mating experiments, as described below.
# Mice were maintained on a 12-hour light/dark cycle in a temperature-controlled room. For studies investigating Shmt1 disruption and NTDs, female mice were randomly assigned at weaning to experimental AIN93G diets containing folic acid (C) or AIN93G lacking folic acid (FD) (FIG. 2) and including 0.6% uridine (Rudolph F B & Van Buren C T (1993), which is hereby incorporated by reference in its entirety), 0.2% thymidine (Iwasa et al., “The Well-Balanced Nucleoside-Nucleotide Mixture ‘0G-VI’ for Special Medical Purposes,” Nutrition 13(4):361-364 (1997), which is hereby incorporated by reference in its entirety), or 0.1% 2′-Deoxyuridine supplementation (Dyets, Bethlehem, Pa.). Diets were assigned with these abbreviations: AIN-93G as control (“C”); Folate Deficient (“FD”), C+ supplemented with 0.6% uridine (“C+U”), C+ supplemented with 0.2% thymidine (“C+T”), C+ supplemented with 0.1% 2′-Deoxyuridine (“C+dU”), FD+ supplemented with 0.6% uridine (“FD+U”), FD+ supplemented with 0.2% thymidine (“FD+T”), FD+ supplemented with 0.1% 2′-Deoxyuridine (“FD+dU”).
# (§1) For all studies, mouse dams were maintained on diet from weaning throughout the breeding period and for the duration of gestation, until killed. Virgin female mice aged 70-120 days were housed overnight with males. The following morning, females were examined for the presence of a vaginal plug. Nine o'clock a.m. the day of the plug appearance was designated as gestational day 0.5 (E0.5). Pregnant females were sacrificed by cervical dislocation at E11.5 and blood was collected by cardiac puncture. Gravid uteri were removed and all implants and resorption sites were recorded. Embryos were examined for presence of NTDs and measured for crown-rump length. All yolk sacs were collected for subsequent genotyping. Embryos were extracted at E11.5 and rapidly frozen in liquid nitrogen followed by storage at −80° C. for biochemical analyses. Embryos examined for morphological abnormalities were derived at E11.5, and fixed in 10% neutral buffered formalin.
# Analysis of NTD incidence, including differences between Genotypes, Diets, and interactions of Diet×genotype were analyzed by 2-factor ANOVA by using Tukey's honestly significant difference for post hoc analysis.
# [2] = test system: embryos and litters of Shmt1 dams; assay: Implants, resorptions, dead embryos and crown-rump length in litters of Shmt1 dams; format: in vivo, mouse; details: for implantation, dead embryos occurrence, rates of resorption compared with C diet: litters from dams
# From the text: as §1
# Analysis of embryonic CR length, total litter resorptions and implants was analyzed by 2-factor ANOVA with Tukey's honestly significant difference for post hoc analysis, in which litter was considered as a random effect. Independent variables included maternal genotype and diet. Resorption rate was calculated as the ratio of resorptions/total implants per litter and log-transformation was applied to normalize the data. Chi-squared analyses were used to assess any deviation from expected genotype ratios based on Mendelian inheritance. Analysis of uracil concentration, Thymidine, deoxyuridine, glucose and folate were conducted by 2-factor ANOVA with Tukey honestly significant differences for post hoc analysis. Independent variables included maternal genotype and diet. All test were performed in JMP version 8.02 (SAS institute). Western blots analyses were assessed using ANOVA and Dunnett's Multiple Comparison Test. […] All statistics were performed using GraphPad Prism version 4.00 for Windows, GraphPad Software, San Diego Calif. USA.
# [3] = test system: female mice; assay: Gross observations in female mice weaned on the diets; format: in vivo, mouse
# [4] = test system: intestinal tumors in Apc-min mice; assay: Intestinal tumor number in Apc-min mice fed supplemented diets; format: in vivo, mouse; details: for intestinal tumors (number per mouse): AIN-93G diet lacking folic acid supplemented with 0.6% uridine or 0.1% deoxyuridine, FD alone 35+/-5
# From the text: SHMT1 null ([…]) mice were generated as previously described (MacFarlane et al., “Cytoplasmic Serine Hydroxymethyltransferase Regulates the Metabolic Partitioning of Methylenetetrahydrofolate but is Not Essential in Mice,” J. Biol. Chem. 283(38):25846-25853 (2008), which is hereby incorporated by reference in its entirety) and backcrossed a minimum of 10 generations onto the C57BL/6J strain. Mice were genotyped using the forward primer 5′-GACACTGTTCACATCCCTC-3′ (SEQ ID NO:1) and the reverse primer 5′-CAAAACATTCGGGAGCCTC-3′ (SEQ ID NO:2). The forward primer corresponds to an intron 6 sequence located 5′ to a loxP site and exon 7 and the reverse primer corresponds to an intron 7 sequence located downstream of a 3′ loxP site (MacFarlane et al., “Cytoplasmic Serine Hydroxymethyltransferase Regulates the Metabolic Partitioning of Methylenetetrahydrofolate but is Not Essential in Mice,” J. Biol. Chem. 283(38):25846-25853 (2008), which is hereby incorporated by reference in its entirety). C57BL/6J-Apc^Min/J (Apc^min/+) mice were obtained. Genotyping of Apc^min/+ mice was performed using the following primers recommended by The Jackson Laboratory protocol: wild-type forward primer 5′-GCCATCCCTTCACGTTAG-3′ (SEQ ID NO:3), Min forward primer 5′-[…]-3′ (SEQ ID NO:4), and a common reverse primer 5′-TTCCACTTTGGCATAAGGC-3′ (SEQ ID NO:5). […]
# The small intestine and colon were removed, flushed with cold PBS, opened longitudinally, and laid flat lumen side up for examination using a dissecting microscope as previously described (Chiu et al., “Sulindac Causes Rapid Regression of Preexisting Tumors in Min/+Mice Independent of Prostaglandin Biosynthesis,” Cancer Res. 57:4267-73 (1997), which is hereby incorporated by reference in its entirety). Tumors were counted according to intestinal location (small intestine or colon) and their diameter measured by a pathologist-trained investigator who was blinded to the genotype of the intestinal specimen. Tumor load is a function of tumor number and area and was calculated as the total tumor area per mouse. […]
# [5] = test system: splotch mutant (Pax3^Sp); details: splotch mutant / splotch homozygotes; literature (Wlodarczyk 2005; Fleming 1998; others); cited from earlier work
# [6] = Shmt1-/- dams fed FD+T diet (0.2% thymidine), out of 32
# [7] = Shmt1+/+ dams, C+U diet (inferred), out of 69
# [8] = Shmt1+/+ female mice fed FD+U diet (0.6% uridine), out of 56
smiles,measurement,setting,value
"Cc1cn([C@H]2C[C@H](O)[C@@H](CO)O2)c(=O)[nH]c1=O [thymidine, reference compound]",number of embryos with NTDs,"[1]; Shmt1+/+ dams fed FD+T diet (0.2% thymidine), out of 49",2 NTDs
same,frequency of NTDs (exencephaly) in embryos,"[1]; Shmt1+/+ dams fed FD+T diet (AIN93G lacking folic acid + 0.2% thymidine), out of 49",4.1%
same,frequency of NTDs (exencephaly) in embryos,[1]; [6],9.4%
same,number of embryos with NTDs,[1]; [6],3 NTDs
same,Shmt1+/+ embryos with exencephaly,[1],one
same,NTD occurrence,[1]; dams fed C+T diet (AIN-93G + 0.2% thymidine),No NTDs were uncovered
same,prevention of NTDs by supplementation of the folate-deficient (FD) diet,[1],did not prevent NTD occurrence and not
"O=c1ccn([C@H]2C[C@H](O)[C@@H](CO)O2)c(=O)[nH]1 [deoxyuridine, 2′-Deoxyuridine]",NTD occurrence,[1]; Shmt1+/+ and Shmt1-/- dams fed FD+dU diet (folic acid deficient + 0.1% 2'-deoxyuridine),did not exhibit NTDs
same,prevention of NTDs by supplementation of the folate-deficient (FD) diet,[1],prevented NTDs
same,number of dead embryos,[2]; dams fed FD+dU and C+dU diets (0.1% 2'-deoxyuridine),"higher number of dead embryos, but the differences did not reach significance"
same,"implantation, dead embryos occurrence, rates of resorption compared with C diet",[2],"Neither implantation, dead embryos occurrence, or rates of resorption were significantly different"
same,other gross findings,[3]; dU and dUFD groups,"Edematous of internal organs (up to 4 mice from dU and dUFD groups together), blood in GI track and uterus, and discoloration of pancreas"
same,lymphoid aggregates on colons compared to other groups,[3]; female mice weaned on C+dU and FD+dU,High frequency of numerous lymphoid aggregates
same,intestinal tumors (number per mouse),[4],29+/−2.0
same,effect on tumor number,[4]; FD diet + 0.1% deoxyuridine,no effect on tumor number
O=c1ccn([C@@H]2O[C@H](CO)[C@@H](O)[C@H]2O)c(=O)[nH]1 [uridine],frequency of exencephaly in embryos,[1]; [7],5.8%
same,number of embryos with NTDs,[1]; [7],4 NTDs
same,frequency of exencephaly in embryos,[1]; [8],5.4%
same,number of embryos with exencephaly,[1]; [8],3
same,number of embryos with exencephaly,"[1]; Shmt1-/- dams fed FD+U diet (0.6% uridine), of 44 viable embryos",7
same,frequency of exencephaly in embryos,"[1]; Shmt1-/- dams fed FD+U diet (folate deficient + 0.6% uridine), of 44 viable embryos",15.9%
same,frequency of exencephaly in embryos,"[1]; Shmt1-/- dams, C+U diet (AIN-93G + 0.6% uridine; diet inferred from next sentence), out of 50 viable embryos",6%
same,number of embryos with NTDs,"[1]; Shmt1-/- dams, C+U diet (inferred), out of 50 viable embryos",3 NTDs
same,Shmt1+/+ embryos with exencephaly,[1],One
same,effect on NTD frequency,"[1]; uridine supplementation, independent of dietary folic acid",exacerbated NTD frequency
same,"implantation, dead embryos occurrence, rates of resorption compared with C diet",[2],"Neither implantation, dead embryos occurrence, or rates of resorption were significantly different"
same,intestinal tumors (number per mouse),[4],18+/−2
Nc1nc2ncc(CNc3ccc(C(=O)N[C@@H](CCC(=O)O)C(=O)O)cc3)nc2c(=O)[nH]1 [folic acid],rescue / prevention of NTDs by dietary supplementation,[5],can be rescued
